“And” between values parts separate entries of the source, which are not always exact repeats. Equal entries are not always repeated.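 How tested: cells in 96-well plates exposed to compound for 48 hours at five concentrations. Here, GI50 denotes the concentration required for 50% inhibition of growth. TGI denotes the concentration required for complete inhibition of growth.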
Experiments:
Experiment in all cases: NCI tumour cell line growth inhibition, 48 h
SN12C renal = tested on: SN12C renal
HCT-15 colon = tested on: HCT-15 colon
U251 CNS = tested on: U251 CNS
SNB-75 CNS = tested on: SNB-75 CNS
SK-MEL-28 melanoma = tested on: SK-MEL-28 melanoma
OVCAR-3 ovarian = tested on: OVCAR-3 ovarian
CCRF-CEM leukemia = tested on: CCRF-CEM leukemia
A498 renal = tested on: A498 renal
MDA-MB-231 breast = tested on: MDA-MB-231 breast
SK-MEL-5 melanoma = tested on: SK-MEL-5 melanoma

Compound	GI50 (SN12C renal)	TGI (SN12C renal) [µM]	GI50 (HCT-15 colon)	TGI (HCT-15 colon)	GI50 (U251 CNS)	TGI (U251 CNS)	GI50 (SNB-75 CNS)	TGI (SNB-75 CNS)	GI50 (SK-MEL-28 melanoma)	TGI (SK-MEL-28 melanoma) [µM]	GI50 (OVCAR-3 ovarian)	TGI (OVCAR-3 ovarian) [µM]	GI50 (CCRF-CEM leukemia)	TGI (CCRF-CEM leukemia) [µM]	GI50 (A498 renal)	TGI (A498 renal)	GI50 (MDA-MB-231 breast)	TGI (MDA-MB-231 breast)	GI50 (SK-MEL-5 melanoma)	TGI (SK-MEL-5 melanoma)
O=C1C(=O)c2ccccc2C(O)=C1CCCc1ccc(C2CCCC2)cc1	6.78 µM	95	4.25 µM	16.9 µM	5.3 µM	33.6 µM	6.55 µM	38.7 µM	7.69 µM	40.1	4.91 µM	20.1	4.62 µM	30.3	7.24 µM	23 µM	11.1 µM	43.9 µM	3.79 µM	14.5 µM
c1cc(CSSCc2ccncc2)ccn1	–	> 100	–	> 100 µM	–	> 70.9 µM	–	> 100 µM	–	> 100	–	> 100	–	24.2	–	> 100 µM	–	> 100 µM	–	56.6 µM
COC(C(=O)C(O)C(C)O)C1Cc2cc3cc(OC4CC(OC5CC(O)C(O)C(C)O5)C(O)C(C)O4)c(C)c(O)c3c(O)c2C(=O)C1OC1CC(OC2CC(O)C(OC3CC(C)(O)C(O)C(C)O3)C(C)O2)C(O)C(C)O1 (stereo unspecified)	11.2 ng/mL and 1.1 ng/mL	–	244 ng/mL and 2.99 ng/mL	2650 ng/mL and 1500 ng/mL	11.2 ng/mL and 0.643 ng/mL	–	11.2 ng/mL and 0.782 ng/mL	–	11.2 ng/mL and 0.611 ng/mL	–	11.2 ng/mL and 4.13 ng/mL	–	11.2 ng/mL and 0.853 ng/mL	–	11.2 ng/mL and 0.0278 ng/mL	–	27.9 ng/mL and 32 ng/mL	112000 ng/mL and 43500 ng/mL	11.2 ng/mL and 1.86 ng/mL	–
O=C1C=CC(=Nc2ccccc2)c2ccccc21	–	25.7	–	24.5 µM	–	20.5 µM	–	20 µM	–	42	–	7.23	–	> 100	–	39.4 µM	–	11.3 µM	–	2.6 µM
COc1ccc2c(Cc3c4ccccc4cc4ccccc34)cncc2c1O	–	> 63.9	–	> 22 µM	–	7.71 µM	–	29.4 µM	–	72.3	–	8.97	–	3.04	–	23.9 µM	–	8.95 µM	–	3.05 µM
CO[C@]12C=C/C(=C(/C(=O)OCc3cccnc3)C(=O)CCCCCCCC[C@@]3(OC)C=C/C(=C(/C(=O)OCc4cccnc4)C(=O)CCCCCCCC1)O3)O2	1.84 µM	34.2	1.04 µM	2.82 µM	1.66 µM	8.58 µM	1.18 µM	4.05 µM	1.37 µM	6.45	1.16 µM	3.84	0.741 µM	7.8	2.04 µM	6.57 µM	2.25 µM	> 50 µM	0.856 µM	1.64 µM
O=c1c2c(c3ccccc3n1-c1ccccc1)NC(=S)NC2c1ccc(Cl)cc1 (stereo unspecified)	3.83 µM	> 100	2.1 µM	26.8 µM	2.04 µM	24.8 µM	3.54 µM	22.6 µM	5.73 µM	32.5	2.86 µM	15.6	3.79 µM	> 100	2.92 µM	12.5 µM	3.67 µM	37.6 µM	2.42 µM	10.5 µM
NCCCn1c2c(c3ccc([N+](=O)[O-])cc3c1=O)C(=O)c1cc(-c3ccccc3)ccc1-2	0.824 µM	2.34	0.187 µM	0.365 µM	0.172 µM	0.313 µM	0.579 µM	1.87 µM	1.51 µM	3.13	1.65 µM	3.1	0.238 µM	0.712	0.694 µM	1.54 µM	1.29 µM	2.85 µM	1.31 µM	2.62 µM
CCCCCCCCCCC/C=C\C[C@H](O)C/C=C1/C(=O)C=C[C@@H]1C/C=C\CCCC(=O)OC	0.841 µM	2.29	0.59 µM	1.29 µM	0.581 µM	1.53 µM	2.07 µM	6.79 µM	0.84 µM	2.31	0.671 µM	1.49	0.923 µM	5.36	7.68 µM	13.6 µM	0.895 µM	2.61 µM	0.603 µM	1.17 µM
COc1cccc(-n2cc(-c3nc(Nc4cc(C)[nH]n4)c4ccccc4n3)nn2)c1	3.04 µM	12.4	0.228 µM	9.23 µM	1.87 µM	9.32 µM	1.15 µM	7.9 µM	6.05 µM	13.9	5.71 µM	12.6	2.82 µM	16.8	0.291 µM	7.08 µM	3.02 µM	15.6 µM	1.07 µM	4.06 µM
C=C1COC(O)(C2OCOC(C3CC(=O)NC(=O)C3)C2O)C1C (stereo unspecified)	–	0.012	0.00363 µM and 0.0127 µM	–	0.00275 µM	0.0376 µM and 0.0739 µM	0.00332 µM	0.0336 µM and 0.0195 µM	0.00222 µM	0.0377	–	0.046	–	0.00744	–	0.0052 µM and 0.00554 µM	–	0.0328 µM	0.00166 µM	0.00459 µM and 0.00385 µM
O=C(O)C1C2C=CC(C2)C1C(=O)O (stereo unspecified)	> 100 µM	> 100	> 100 µM	> 100 µM	> 100 µM	> 100 µM	> 100 µM	> 100 µM	> 100 µM	> 100	> 100 µM	> 100	> 100 µM	> 100	> 100 µM	> 100 µM	> 100 µM	> 100 µM	> 100 µM	> 100 µM
C=C1CC[C@@H]2[C@](C)(COC(C)=O)[C@H](OC(C)=O)CC[C@@]2(C)[C@@H]1CC(Nc1ccc(S(=O)(=O)Nc2cc(C)on2)cc1)C1=CCOC1=O (stereo partly specified)	1.73 µM	4.52	1.5 µM	3.83 µM	1.89 µM	3.4 µM	2.03 µM	11.5 µM	2.02 µM	4.31	1.66 µM	3.09	0.477 µM	2.71	7.69 µM	20.3 µM	2.22 µM	5.11 µM	2.11 µM	4.65 µM
